The text below walks through data of patent US9131719B2, “Use of certain neoflavonoids for intensifying and/or producing a sensory impression of sweetness” (SYMRISE AG, priority 2011, dated 2015).

Holding throughout (assay type): in vivo
For assay [1], the system named is impression of sweetness of a 5 wt % sucrose solution. In words: Intensification of the impression of sweetness of a sugar solution, assessed by a panel of experts. The note with it: for % intensification of the impression of sweetness: calculated from mean values with vs without test substance; for Impression of sweetness (1-10) with: scale 1 [not sweet] to 10 [extremely sweet]; for sweetness intensifying action (in words): residue at position C5 instead of C7, compared with compounds to be used according to the invention. Here is the method: For quantifying the intensification of the impression of sweetness, the sweetness of a 5 wt % sucrose solution (consisting of 5 wt % sucrose in water) and of a sample that consisted of water, 5 wt % sucrose and a specified amount (i.e. that given below in each case) of test substance was determined by a panel of experts. The assessment was based on a scale from 1 [not sweet] to 10 [extremely sweet]. The intensification of the impression of sweetness (in %) was calculated from the respective mean values of the assessments of the sucrose solution and of the respective sample to be investigated containing the test substance. The test substances used were in each case a racemic mixture of the following compounds to be used according to the invention. […]

The subject of assay [2] is bitterness of a solution containing 100 ppm naringin. In words: Reduction of bitterness of a solution of bitter substance (naringin), assessed by a panel of experts. The note with it: 25 ppm test substance. The text has this: (§1) To quantify the reduction (i.e. the masking or decrease) of the impression of bitterness in a sample, the bitterness of a solution containing 500 ppm caffeine or 100 ppm naringin was compared by a panel of experts, in each case against a sample that contained 500 ppm caffeine or 100 ppm naringin and additionally the amount stated in each case of a substance to be assessed (with respect to capacity for reducing bitterness) (assessment scale: 1 [not bitter] through 10 [extremely bitter]). Evaluation, i.e. calculation of the reduction (in %) of the impression of bitterness, was based in each case on the mean values of the assessment of the panel of experts.

Assay [3] concerns bitterness of a solution containing 500 ppm caffeine. Nature of the assay: Reduction of bitterness of a solution of bitter substance (caffeine), assessed by a panel of experts. The note with it: 50 ppm test substance.
Text: as §1

Where [4] appears, read: 50 ppm test substance in 5 wt % sucrose solution.
Setting [5] is: 50 ppm test substance in water with 5 wt % sucrose.
Setting [6] is: scale 1 [not bitter] through 10 [extremely bitter].

With `COc1cc(O)c2c(c1)OC(=O)C[C@H]2c1ccc(O)c(OC)c1` [(23) + (24), (4S)-5-Hydroxy-4-(4-hydroxy-3-methoxyphenyl)-7-methoxy-chroman-2-one (23) and (4R)-5-hydroxy-4-(4-hydroxy-3-methoxyphenyl)-7-methoxy-chroman-2-one (24)], the “% intensification of the impression of sweetness” value (“% intensification” below) in assay [1] (setting [4]) is reported as 47%. For the same compound, in assay [1] (setting [5]), the “Impression of sweetness (1-10) with” value amounted to 7.6 ± 1.5.
Taken in the same sequence, the figures for `COc1cc([C@@H]2CC(=O)Oc3cc(O)cc(OC)c32)ccc1O` [(A) + (B), (4S)-7-Hydroxy-4-(4-hydroxy-3-methoxyphenyl)-5-methoxy-chroman-2-one (A) and (4R)-7-hydroxy-4-(4-hydroxy-3-methoxyphenyl)-5-methoxy-chroman-2-one (B)] were 8% (p < 0.5) and 5.8 ± 1.4.
Turning to `COc1cc([C@@H]2CC(=O)Oc3cc(O)cc(OC)c32)ccc1O` [(A), (4S)-7-Hydroxy-4-(4-hydroxy-3-methoxyphenyl)-5-methoxy-chroman-2-one], the “sweetness intensifying action (in words)” value in assay [1] is listed as “much lower sweetness intensifying action”.
For `COc1cc(OC)c2c(c1)OC(=O)C[C@H]2c1ccc(O)c(OC)c1` [(17) + (18), (4S)-4-(4-Hydroxy-3-methoxyphenyl)-5,7-dimethoxy-chroman-2-one (17) and (4R)-4-(4-hydroxy-3-methoxyphenyl)-5,7-dimethoxy-chroman-2-one (18)], the “% intensification” value in assay [1] (setting [4]) is given as 37% (p < 0.002). The “Impression of sweetness (1-10) with” value in assay [1] (setting [5]) came to 7.1 ± 1.8. The “% reduction of the impression of bitterness” value in assay [2] (calculated from mean values) is reported as 9.9%. Besides, the “Impression of bitterness (1-10) with” value in assay [2] (setting [6]) came out at 4.8 ± 2.5.
In the case of `COc1cc([C@H]2CC(=O)Oc3cc(O)cc(OC)c32)ccc1O` [(B), (4R)-7-hydroxy-4-(4-hydroxy-3-methoxyphenyl)-5-methoxy-chroman-2-one], in assay [1], the “sweetness intensifying action (in words)” value is reported as “much lower sweetness intensifying action”.
Consider “(4S)-7-Methoxy-4-(4-methoxyphenyl)chroman-2-one (1) and (4R)-7-methoxy-4-(4-methoxyphenyl)chroman-2-one (2) [(1) + (2)]”, for which, in assay [1] (setting [4]), the “% intensification” value was 12% (p < 0.08). Also, the “Impression of sweetness (1-10) with” value in assay [1] (setting [5]) came to 5.4 ± 0.9.
As to `CCCOc1ccc2c(c1)OC(=O)C[C@H]2c1ccc(O)cc1` [(11) + (12), (4S)-4-(4-Hydroxyphenyl)-7-propoxy-chroman-2-one (11) and (4R)-4-(4-hydroxyphenyl)-7-propoxy-chroman-2-one (12)], in assay [1] (25 ppm test substance in 5 wt % sucrose solution), the “% intensification” value is recorded as 14% (p < 0.09). Moreover, the “Impression of sweetness (1-10) with” value in assay [1] (25 ppm test substance in water with 5 wt % sucrose) stood at 6.6 ± 1.5.
Turning to “(4S)-4-(4-Hydroxyphenyl)-7-methoxy-chroman-2-one (19) and (4R)-4-(4-hydroxyphenyl)-7-methoxy-chroman-2-one (20) [(19) + (20)]”, the “% intensification” value in assay [1] (setting [4]) is 14% (p < 0.09). The “Impression of sweetness (1-10) with” value in assay [1] (setting [5]) came to 5.4 ± 1.1. The “% reduction of the impression of bitterness” value in assay [3] (calculated from mean values) is on record as 9.9%. In assay [3] (setting [6]), the “Impression of bitterness (1-10) with” value is reported as 3.6 ± 1.5.
